Reference: the supplement of paper PMC9151546
Structures can show the parent of a compound that is named as a salt.

Assays:
CHO-K1 [1] = test: benchmark concentration for 60% increase in hypodiploid frequency (BMC60); higher = less potent aneugen
Description: (§1)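 Benchmark concentration modelling (PROAST, Hill/exponential model families) of the 19-concentration flow-cytometric micronucleus assay in CHO-K1 cells, with and without rat liver S9. Only non-cytotoxic and adequate (relative survival >=40%) concentrations were used. BMR was a 30% increase in %MN (BMC30) or a 60% increase in %hypodiploid (BMC60) over control.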

CHO-K1 [2] = test: benchmark concentration for 30% increase in micronucleus frequency (BMC30); higher = less potent clastogen
Description: as §1

[3] = S9 metabolic activation: without S9
[4] = S9 metabolic activation: with S9

ClCC(Cl)CCl [1,2,3-Trichloropropane]
benchmark concentration (CHO-K1 [1]; [3]): 72 µM | benchmark concentration (CHO-K1 [2]; [3]): 46 µM

Cc1cccc([N+](=O)[O-])c1C [1,2-Dimethyl-3-nitrobenzene]
benchmark concentration (CHO-K1 [1]; [3]): 38 µM | benchmark concentration (CHO-K1 [2]; [4]): 59 µM | benchmark concentration (CHO-K1 [2]; [3]): 41 µM

c1ccc(NNc2ccccc2)cc1 [1,2-Diphenylhydrazine]
benchmark concentration (CHO-K1 [1]; [4]): 45 µM | benchmark concentration (CHO-K1 [1]; [3]): 68 µM | benchmark concentration (CHO-K1 [2]; [4]): 22 µM | benchmark concentration (CHO-K1 [2]; [3]): 46 µM

CC(O)CO (stereo unspecified) [1,2-Propylene glycol]
benchmark concentration (CHO-K1 [1]; [3]): 44 µM | benchmark concentration (CHO-K1 [2]; [3]): 130 µM

CC1(C)C(=O)N(Cl)C(=O)N1Cl [1,3-Dichloro-5,5-dimethylhydantoin]
benchmark concentration (CHO-K1 [1]; [3]): 55 µM | benchmark concentration (CHO-K1 [2]; [3]): 31 µM

NC(=Nc1ccccc1)Nc1ccccc1 [1,3-Diphenylguanidine]
benchmark concentration (CHO-K1 [1]; [3]): 67 µM | benchmark concentration (CHO-K1 [2]; [3]): 78 µM

O=S1(=O)CCCO1 [1,3-Propane sultone]
benchmark concentration (CHO-K1 [1]; [3]): 80 µM | benchmark concentration (CHO-K1 [2]; [3]): 110 µM

Nc1cccc2c(N)cccc12 [1,5-Naphthalenediamine]
benchmark concentration (CHO-K1 [1]; [3]): 66 µM | benchmark concentration (CHO-K1 [2]; [4]): 8.6 µM

Cc1cccc2ccccc12 [1-Methylnaphthalene]
benchmark concentration (CHO-K1 [1]; [3]): 110 µM | benchmark concentration (CHO-K1 [2]; [3]): 57 µM

Oc1cc(Cl)c(Cl)cc1Cl [2,4,5-Trichlorophenol]
benchmark concentration (CHO-K1 [1]; [3]): 38 µM | benchmark concentration (CHO-K1 [2]; [4]): 6.5 µM

Oc1ccc(Cl)cc1Cl [2,4-Dichlorophenol]
benchmark concentration (CHO-K1 [1]; [3]): 20 µM | benchmark concentration (CHO-K1 [2]; [4]): 17 µM | benchmark concentration (CHO-K1 [2]; [3]): 17 µM

O=[N+]([O-])c1ccc(O)c([N+](=O)[O-])c1 [2,4-Dinitrophenol]
benchmark concentration (CHO-K1 [1]; [3]): 49 µM | benchmark concentration (CHO-K1 [2]; [3]): 86 µM

Cc1ccc(C)c(O)c1 [2,5-Dimethylphenol]
benchmark concentration (CHO-K1 [1]; [3]): 39 µM | benchmark concentration (CHO-K1 [2]; [3]): 37 µM

Cc1cccc(C)c1O [2,6-Dimethylphenol]
benchmark concentration (CHO-K1 [1]; [3]): 110 µM | benchmark concentration (CHO-K1 [2]; [3]): 87 µM

CCC(C)c1ccccc1O (stereo unspecified) [2-(Butan-2-yl)phenol]
benchmark concentration (CHO-K1 [1]; [4]): 30 µM | benchmark concentration (CHO-K1 [1]; [3]): 170 µM | benchmark concentration (CHO-K1 [2]; [4]): 23 µM

Nc1ccc2c(c1)C(=O)c1ccccc1C2=O [2-Aminoanthraquinone]
benchmark concentration (CHO-K1 [1]; [4]): 22 µM | benchmark concentration (CHO-K1 [1]; [3]): 29 µM | benchmark concentration (CHO-K1 [2]; [4]): 8.1 µM

COc1ccccc1N [2-Anisidine]
benchmark concentration (CHO-K1 [1]; [3]): 120 µM | benchmark concentration (CHO-K1 [2]; [3]): 46 µM

O=C(CCl)c1ccccc1 [2-Chloroacetophenone]
benchmark concentration (CHO-K1 [1]; [4]): 62 µM | benchmark concentration (CHO-K1 [2]; [4]): 60 µM

OCCCl [2-Chloroethanol]
benchmark concentration (CHO-K1 [1]; [3]): 130 µM | benchmark concentration (CHO-K1 [2]; [3]): 60 µM

COc1ccc(C)cc1N [2-Methoxy-5-methylaniline]
benchmark concentration (CHO-K1 [1]; [3]): 89 µM | benchmark concentration (CHO-K1 [2]; [3]): 48 µM

Cc1ccccc1N [2-Methylaniline]
benchmark concentration (CHO-K1 [1]; [3]): 49 µM | benchmark concentration (CHO-K1 [2]; [3]): 21 µM

Nc1ccc2ccccc2c1 [2-Naphthylamine]
benchmark concentration (CHO-K1 [1]; [4]): 43 µM | benchmark concentration (CHO-K1 [1]; [3]): 47 µM | benchmark concentration (CHO-K1 [2]; [3]): 51 µM

CC(C)(c1cc(Br)c(O)c(Br)c1)c1cc(Br)c(O)c(Br)c1 [3,3',5,5'-Tetrabromobisphenol A]
benchmark concentration (CHO-K1 [1]; [4]): 28 µM | benchmark concentration (CHO-K1 [1]; [3]): 37 µM | benchmark concentration (CHO-K1 [2]; [3]): 44 µM

Cc1cc(-c2ccc(N)c(C)c2)ccc1N [3,3'-Dimethylbenzidine]
benchmark concentration (CHO-K1 [1]; [3]): 20 µM | benchmark concentration (CHO-K1 [2]; [3]): 99 µM

Cc1ccc(O)cc1C [3,4-Dimethylphenol]
benchmark concentration (CHO-K1 [1]; [3]): 74 µM | benchmark concentration (CHO-K1 [2]; [3]): 120 µM

OCCCBr [3-Bromo-1-propanol]
benchmark concentration (CHO-K1 [1]; [3]): 73 µM | benchmark concentration (CHO-K1 [2]; [3]): 110 µM

Cc1cc(Cc2ccc(N)c(C)c2)ccc1N [4,4'-Methylenebis(2-methylaniline)]
benchmark concentration (CHO-K1 [1]; [3]): 33 µM | benchmark concentration (CHO-K1 [2]; [3]): 37 µM

CN(C)c1ccc(Cc2ccc(N(C)C)cc2)cc1 [4,4'-Methylenebis(N,N-dimethylaniline)]
benchmark concentration (CHO-K1 [1]; [4]): 75 µM | benchmark concentration (CHO-K1 [1]; [3]): 38 µM | benchmark concentration (CHO-K1 [2]; [4]): 56 µM

Nc1ccc(Oc2ccc(N)cc2)cc1 [4,4'-Oxydianiline]
benchmark concentration (CHO-K1 [1]; [3]): 31 µM | benchmark concentration (CHO-K1 [2]; [3]): 60 µM

CCC(C)(C)c1ccc(O)cc1 [4-(2-Methylbutan-2-yl)phenol]
benchmark concentration (CHO-K1 [1]; [3]): 140 µM | benchmark concentration (CHO-K1 [2]; [4]): 81 µM

Cc1cc(O)ccc1Cl [4-Chloro-3-methylphenol]
benchmark concentration (CHO-K1 [1]; [3]): 46 µM | benchmark concentration (CHO-K1 [2]; [4]): 18 µM | benchmark concentration (CHO-K1 [2]; [3]): 41 µM

Nc1ccc(Cl)cc1 [4-Chloroaniline]
benchmark concentration (CHO-K1 [1]; [3]): 31 µM | benchmark concentration (CHO-K1 [2]; [3]): 63 µM

CC(C)(c1ccccc1)c1ccc(O)cc1 [4-Cumylphenol]
benchmark concentration (CHO-K1 [1]; [3]): 44 µM | benchmark concentration (CHO-K1 [2]; [3]): 26 µM

Nc1ccc([N+](=O)[O-])cc1 [4-Nitroaniline]
benchmark concentration (CHO-K1 [1]; [3]): 100 µM | benchmark concentration (CHO-K1 [2]; [3]): 11 µM

O=C1NC(=O)C(c2ccccc2)(c2ccccc2)N1 [5,5-Diphenylhydantoin]
benchmark concentration (CHO-K1 [1]; [3]): 17 µM | benchmark concentration (CHO-K1 [2]; [3]): 13 µM

O=c1[nH]cc(F)c(=O)[nH]1 [5-Fluorouracil]
benchmark concentration (CHO-K1 [1]; [3]): 99 µM | benchmark concentration (CHO-K1 [2]; [3]): 110 µM

CCCCCCCC1CCC(=O)O1 (stereo unspecified) [5-Heptyldihydro-2(3H)-furanone]
benchmark concentration (CHO-K1 [1]; [3]): 79 µM | benchmark concentration (CHO-K1 [2]; [3]): 75 µM

Cc1cc(=O)[nH]c(=S)[nH]1 [6-Methyl-2-thiouracil]
benchmark concentration (CHO-K1 [1]; [4]): 83 µM | benchmark concentration (CHO-K1 [1]; [3]): 57 µM | benchmark concentration (CHO-K1 [2]; [3]): < 4.5 µM

Cc1ccc2ncccc2c1 [6-Methylquinoline]
benchmark concentration (CHO-K1 [1]; [4]): 51 µM | benchmark concentration (CHO-K1 [1]; [3]): 120 µM | benchmark concentration (CHO-K1 [2]; [4]): 22 µM

Nc1nc(=S)c2[nH]cnc2[nH]1 [6-Thioguanine]
benchmark concentration (CHO-K1 [1]; [4]): 74 µM | benchmark concentration (CHO-K1 [2]; [4]): 33 µM | benchmark concentration (CHO-K1 [2]; [3]): < 4.5 µM

C#C[C@]1(O)CC[C@H]2[C@@H]3CCc4cc(O)ccc4[C@H]3CC[C@@]21C [17alpha-Ethinylestradiol]
benchmark concentration (CHO-K1 [1]; [3]): < 4.5 µM | benchmark concentration (CHO-K1 [2]; [4]): 58 µM

CCOCN(C(=O)CCl)c1c(C)cccc1CC [Acetochlor]
benchmark concentration (CHO-K1 [2]; [4]): 79 µM | benchmark concentration (CHO-K1 [2]; [3]): 39 µM

C=CC(N)=O [Acrylamide]
benchmark concentration (CHO-K1 [2]; [4]): 47 µM

COCCOCCOC [Bis(2-methoxyethyl) ether]
benchmark concentration (CHO-K1 [2]; [4]): 72 µM

CS(=O)(=O)OCCCCOS(C)(=O)=O [Busulfan]
benchmark concentration (CHO-K1 [2]; [3]): 19 µM

CCCCCCCCCCCCCCCS(=O)(=O)Oc1ccccc1 [C10-21 sulfonic acids phenyl esters]
benchmark concentration (CHO-K1 [2]; [3]): 130 µM

CCOC(=O)C(O)(c1ccc(Cl)cc1)c1ccc(Cl)cc1 [Chlorobenzilate]
benchmark concentration (CHO-K1 [2]; [3]): 47 µM

CN(C)CCCN1c2ccccc2Sc2ccc(Cl)cc21 [Chlorpromazine hydrochloride]
benchmark concentration (CHO-K1 [2]; [3]): 23 µM

C[C@@H]1C[C@@H]([C@H](O)CC2CC(=O)NC(=O)C2)C(=O)[C@@H](C)C1 [Cycloheximide]
benchmark concentration (CHO-K1 [2]; [4]): < 4.5 µM

O=P1(N(CCCl)CCCl)NCCCO1 (stereo unspecified) [Cyclophosphamide monohydrate]
benchmark concentration (CHO-K1 [2]; [3]): 91 µM

CCCCC(CC)COC(=O)CCCCC(=O)OCC(CC)CCCC (stereo unspecified) [Di(2-ethylhexyl) adipate]
benchmark concentration (CHO-K1 [2]; [3]): 76 µM

c1ccc2c(c1)oc1ccccc12 [Dibenzofuran]
benchmark concentration (CHO-K1 [2]; [4]): 33 µM

CC(C)(OOC(C)(C)c1ccccc1)c1ccccc1 [Dicumyl peroxide]
benchmark concentration (CHO-K1 [2]; [4]): 88 µM | benchmark concentration (CHO-K1 [2]; [3]): 5.5 µM

OCCOCCO [Diethylene glycol]
benchmark concentration (CHO-K1 [2]; [3]): 79 µM

CCC(C)c1cc([N+](=O)[O-])cc([N+](=O)[O-])c1O (stereo unspecified) [Dinoseb]
benchmark concentration (CHO-K1 [2]; [3]): 49 µM

CCOc1ccc2c(c1)C(C)=CC(C)(C)N2 [Ethoxyquin]
benchmark concentration (CHO-K1 [2]; [4]): 86 µM | benchmark concentration (CHO-K1 [2]; [3]): 55 µM

CCOC(=O)c1ccc(O)cc1 [Ethylparaben]
benchmark concentration (CHO-K1 [2]; [3]): 70 µM

O=Cc1ccco1 [Furfural]
benchmark concentration (CHO-K1 [2]; [3]): 130 µM

O=c1c(-c2ccc(O)cc2)coc2cc(O)cc(O)c12 [Genistein]
benchmark concentration (CHO-K1 [2]; [3]): 10 µM

O=CCCCC=O [Glutaraldehyde]
benchmark concentration (CHO-K1 [2]; [3]): 28 µM

OCC1CO1 (stereo unspecified) [Glycidol]
benchmark concentration (CHO-K1 [2]; [3]): 99 µM

ClC1=C(Cl)C(Cl)(Cl)C(Cl)=C1Cl [Hexachlorocyclopentadiene]
benchmark concentration (CHO-K1 [2]; [4]): 23 µM | benchmark concentration (CHO-K1 [2]; [3]): < 4.5 µM

O=C1C2(Cl)C3(Cl)C4(Cl)C(Cl)(Cl)C5(Cl)C3(Cl)C1(Cl)C5(Cl)C24Cl (stereo unspecified) [Kepone]
benchmark concentration (CHO-K1 [2]; [4]): 53 µM | benchmark concentration (CHO-K1 [2]; [3]): 30 µM

CC(=O)N1CCN(c2ccc(OCC3COC(Cn4ccnc4)(c4ccc(Cl)cc4Cl)O3)cc2)CC1 (stereo unspecified) [Ketoconazole]
benchmark concentration (CHO-K1 [2]; [4]): 54 µM

CCCN(CCC)N=O [N-Nitrosodipropylamine]
benchmark concentration (CHO-K1 [2]; [4]): 20 µM

O=[N+]([O-])c1ccc(Oc2ccc(Cl)cc2Cl)cc1 [Nitrofen]
benchmark concentration (CHO-K1 [2]; [3]): 77 µM

CCCCCCCCn1sccc1=O [Octhilinone]
benchmark concentration (CHO-K1 [2]; [3]): < 4.5 µM

O=S(=O)(O)C(F)(F)C(F)(F)C(F)(F)C(F)(F)C(F)(F)C(F)(F)C(F)(F)C(F)(F)F [PFOS]
benchmark concentration (CHO-K1 [2]; [3]): 18 µM

O=C1OC(c2ccc(O)cc2)(c2ccc(O)cc2)c2ccccc21 [Phenolphthalein]
benchmark concentration (CHO-K1 [2]; [3]): 22 µM

CCCOC(=O)c1cc(O)c(O)c(O)c1 [Propyl gallate]
benchmark concentration (CHO-K1 [2]; [4]): 24 µM | benchmark concentration (CHO-K1 [2]; [3]): 17 µM

CCCOC(=O)c1ccc(O)cc1 [Propylparaben]
benchmark concentration (CHO-K1 [2]; [4]): 37 µM

O=C(c1ccc(OCCN2CCCCC2)cc1)c1c(-c2ccc(O)cc2)sc2cc(O)ccc12 [Raloxifene hydrochloride]
benchmark concentration (CHO-K1 [2]; [4]): 70 µM | benchmark concentration (CHO-K1 [2]; [3]): 28 µM

O=C(O)c1cc(/N=N/c2ccc(S(=O)(=O)Nc3ccccn3)cc2)ccc1O [Sulfasalazine]
benchmark concentration (CHO-K1 [2]; [3]): 65 µM

Oc1cc(Cl)ccc1Oc1ccc(Cl)cc1Cl [Triclosan]
benchmark concentration (CHO-K1 [2]; [4]): 40 µM

CCOC(N)=O [Urethane]
benchmark concentration (CHO-K1 [2]; [4]): 32 µM
